Measured values: PMC5618421, “Anti-Inflammatory Effects of Curvularin-Type Metabolites from a Marine-Derived Fungal Strain Penicillium sp. SF-5859 in Lipopolysaccharide-Induced RAW264.7 Macrophages” (Marine Drugs, 2017)

What was measured:
Assay type in all cases: cell-based
IκB-α = assay: Western blot of cytosolic IκBα phosphorylation and degradation in LPS-treated RAW264.7 macrophages; details: pre-treated 3 h, LPS (1 μg/mL) 1 h
Protocol: (§1) Figure 3 Effects of 8 on NF-κB activation (nuclear-p50 and p65) (a), IκBα phosphorylation and degradation (b), and the DNA binding activity of NF-κB (c) in LPS-treated RAW264.7 macrophages. Cells were pre-treated with the indicated concentrations of 8 for 3 h and stimulated with LPS (1 μg/mL) for 1 h. Western blot analysis (IκBα and p-IκBα in the cytoplasm and NF-κB in the nucleus) was performed as described in the Materials and Methods. Representative blots from three independent experiments are shown. A commercially-available NF-κB ELISA kit (Active Motif) was used to test the nuclear extracts and determine the degree of NF-κB binding. The data shown represent the mean values of three independent experiments. * p < 0.05 compared with the group treated with LPS.
(§2) The proteins of iNOS, COX-2, NF-κB, and MAPKs were measured by Western blot analysis. The details of procedures for Western blot analysis were described previously.
(§3) The proteins of nuclear NF-κB (p50 and p65) and cytosolic IκBα (p-IκBα and IκBα) were obtained by using cytosolic and nuclear fractions. The details of this procedure have been described previously.

iNOS = assay: Western blot of iNOS protein expression in LPS-stimulated RAW264.7 macrophages; details: pre-treated 3 h, LPS 24 h
Excerpt: Therefore, we further tested whether inhibitory effects of 8 against NO and PGE2 productions are correlated with the protein expression of pro-inflammatory enzymes (i.e., iNOS and COX-2, respectively), which are known to catalyze the production of NO and PGEs in LPS-stimulated cells. […] Upon the stimulation by LPS, macrophages can also trigger the production of pro-inflammatory cytokines such as TNF-α, and ILs. The overproduction of these cytokines contributes to the pathogenesis of inflammatory diseases. Thus, we further evaluated the effects of 8 on the mRNA expression of pro-inflammatory cytokines in the LPS-induced cells. The cells were pre-treated with indicated concentration for 3 h, followed by LPS stimulation (1 μg/mL) for 6 h. The mRNA expression of pro-inflammatory cytokines was determined by RT-qPCR.
Figure 2 Effects of 8 on protein expression levels of iNOS and COX-2 (a), and mRNA expression levels of IL-1β (Il1b) (b), IL-6 (Il6) (c), and TNF-α (Tnf) (d) in RAW264.7 macrophages. The cells were pre-treated for 3 h with the indicated concentrations of 8 and stimulated for 24 h (a), and 6 h (b–d) with LPS (1 μg/mL). The measurement of western blot analysis and RNA quantification for Il1b, Il6, and Tnf expression were performed as described in the Materials and Methods. […]
The proteins of iNOS, COX-2, NF-κB, and MAPKs were measured by Western blot analysis. […]

[1] = test system: c-Jun N-terminal kinase (JNK); assay: Western blot of JNK phosphorylation in LPS-treated RAW264.7 macrophages; details: pre-treated 3 h, LPS (1 μg/mL) 30 min
Protocol: (§4) Figure 4 Effects of 8 on p38 (a), JNK (b), and ERK (c) phosphorylation in RAW264.7 macrophages. Cells were pre-treated with the indicated concentrations of 8 for 3 h and stimulated for 30 min with LPS (1 μg/mL). Cell extracts were subjected to Western blotting with antibodies specific for phosphorylated-p38 (p-p38), phosphorylated JNK (p-JNK), or phosphorylated ERK1/2 (p-ERK). Membranes were stripped and re-probed to measure the total abundance of each MAPK as a control measurement. Representative blots from three independent experiments are shown.
as §2

[2] = test system: extracellular signal-regulated kinase (ERK); assay: Western blot of ERK phosphorylation in LPS-treated RAW264.7 macrophages; details: pre-treated 3 h, LPS (1 μg/mL) 30 min
Protocol: as §4, §2

TNF-α (Tnf) = assay: RT-qPCR of TNF-α mRNA in LPS-stimulated RAW264.7 macrophages; details: pre-treated 3 h, LPS (1 μg/mL) 6 h
NF-κB = assay: DNA binding activity of NF-κB in nuclear extracts (TransAM ELISA kit); details: pre-treated 3 h, LPS (1 μg/mL) 1 h
Protocol: as §1
TransAM kit (Active Motif, Carlsbad, CA, USA) was used to estimate the DNA-binding activity of NF-κB in the nuclear extract according to the manufacturer’s instructions as described previously.

[3] = test system: NO production in LPS-treated RAW 264.7 macrophages; assay: Inhibition of NO production (nitrite, Griess reaction) in LPS-treated RAW264.7 macrophages; details: Mus musculus; RAW264.7 macrophages pre-treated 3 h with compound, then LPS (1 μg/mL) 24 h; Griess reaction
Protocol: All isolated compounds (1–9) were evaluated for their anti-inflammatory effects. […] NO is a small molecule which is an intracellular mediator produced in various immune cells. It plays a pivotal role in the physiological and pathological condition of inflammatory symptoms. PGE2 can also regulate the immune and inflammatory responses. In this study, RAW264.7 macrophages were pre-treated for 3 h in the medium containing non-toxic concentrations (Table 2) of each compound (1–9), and then LPS (1 μg/mL) was treated for 24 h. According to the LPS stimulation of RAW264.7 macrophages, production of NO and PGE2 was increased, and the effects of all compounds on the production level of NO and PGE2 were evaluated by the Griess reaction and a PGE2 kit, respectively. […] To evaluate the impact of phenol and resorcinol groups in the curvularin-type metabolites for the anti-inflammatory activity, 5-O-methyl and 5,7,-di-O-methyl derivatives of curvularin (3a and 3b, respectively), as well as 5-O-acetyl and 5,7,-di-O-acetyl derivatives of curvularin (3c and 3d, respectively), were prepared, and the structures of 3a–3d were identified by comparison the ^1H and ^13C-NMR spectroscopic data with those of curvularin (3), and confirmed by their HRESIMS. […] The position of the methoxy group in 3a was confirmed by HMBC correlation between methoxy signal at δH 3.77 (3H, s, 5-OCH3) and δC 161.8 (C-5). The NOESY cross-peaks between acetyl proton ([…]) with H-2, H-4, and H-16 of 3c were used to identify the position of the acetyl group in 3c. […] Further systematic investigations are needed to clarify the structure activity relationship associated with the modification of the aliphatic part of the molecule.
As an indicator of NO production in RAW264.7 macrophages, production of nitrite, a stable end-product of NO oxidation, was estimated. Briefly, the concentration of nitrite in the conditioned media was determined by a method based on the Griess reaction, and the details of the assay were described previously.

NF-κB (p50 and p65) = assay: Western blot of nuclear NF-κB (p50 and p65) in LPS-treated RAW264.7 macrophages; details: pre-treated 3 h, LPS (1 μg/mL) 1 h
Protocol: as §1, §2, §3

Compound: C[C@H]1CCC/C=C/C(=O)c2c(O)cc(O)cc2CC(=O)O1 [Compound 8, (10E,15S)-10,11-dehydrocurvularin]
- degradation of IκB-α (IκB-α): blocked the degradation of IκB-α in a concentration-dependent manner
- phosphorylation of IκB-α (IκB-α): attenuated this phosphorylation of IκB-α
- iNOS protein expression (iNOS): attenuation of the excessive protein expression of iNOS and COX-2 in a dose-dependent manner
- LPS-induced phosphorylation of JNK [1]: did not suppress these phosphorylations
- LPS-induced phosphorylation of ERK [2]: did not suppress these phosphorylations
- mRNA expression of TNF-α (TNF-α (Tnf)): markedly suppressed the mRNA expression of IL-1β, IL-6, and TNF-α in a dose-dependent manner
- LPS-induced DNA binding activity of NF-κB (NF-κB): declined
- IC50 [3]: 1900 ± 300 nM
- nuclear translocation of p50 and p65 (NF-κB (p50 and p65)): clearly suppressed the nuclear translocation of p50 and p65 in a dose-dependent manner
